What all share (experiment): minimal inhibitory concentration (MIC), agar streak test
Type in all cases: cell-based

One assay concerns Ps. aeruginosa 2. Particulars: Pseudomonas aeruginosa, heart infusion agar, 37° C., 20 hours, 10^8 viable cells per ml. As to the method:
(§1) One loopful of an overnight culture of each test strain in Trypticase-soy broth (10^8 viable cells per ml.) was streaked on heart infusion agar (HI-agar) containing graded concentrations of antibiotics, and the minimal inhibitory concentration (MIC) was expressed in terms of μg/ml after incubation at 37° C. for 20 hours.

Another assay relates to B. subtilis ATCC 6633. Particulars: Bacillus subtilis, ATCC6633, heart infusion agar, 37° C., 20 hours, 10^8 viable cells per ml. As to the method:
as §1

A further assay relates to S. marcescens 35. Particulars: Serratia marcescens, heart infusion agar, 37° C., 20 hours, 10^8 viable cells per ml. As to the method: as §1

≈ marks a conversion by molar mass, not a printed value.

As usually defined, the MIC is the least concentration at which growth counts as inhibited. The low end stands for a more susceptible organism, the high end for a less susceptible organism. Consider `CCO/N=C(\C(=O)NC1C(=O)N2C(C(=O)[O-])=C(C[n+]3ccc(CCCO)cc3)CSC12)c1nsc(N)n1` (stereo not drawn) [(5)], for which the values for the MIC against Ps. aeruginosa 2, against B. subtilis ATCC 6633 and in the assay on S. marcescens 35 were 12.5 µg/mL (≈ 22.8 µM), 0.78 µg/mL (≈ 1.42 µM) and 1.56 µg/mL (≈ 2.85 µM), respectively.

As to `CCO/N=C(\C(=O)NC1C(=O)N2C(C(=O)[O-])=C(C[n+]3cccc(CO)c3)CSC12)c1nsc(N)n1` (stereo not drawn) [(1)], the MIC against Ps. aeruginosa 2 turned out to be 6.25 µg/mL (≈ 12 µM); in the assay on B. subtilis ATCC 6633, 0.78 µg/mL (≈ 1.5 µM); in the assay with S. marcescens 35, 3.13 µg/mL (≈ 6.02 µM).

For the molecule `CCO/N=C(\C(=O)NC1C(=O)N2C(C(=O)[O-])=C(C[n+]3ccc(CO)cc3)CSC12)c1nsc(N)n1` (stereo not drawn) [(2)], the figures for the MIC in the assay on Ps. aeruginosa 2, with B. subtilis ATCC 6633 and against S. marcescens 35 were 12.5 µg/mL (≈ 24.1 µM), 0.78 µg/mL (≈ 1.5 µM) and 1.56 µg/mL (≈ 3 µM), respectively.

For the molecule `CCO/N=C(\C(=O)NC1C(=O)N2C(C(=O)[O-])=C(C[n+]3cccc(Cl)c3)CSC12)c1nsc(N)n1` (stereo not drawn) [(3)], the MIC with Ps. aeruginosa 2 is 6.25 µg/mL (≈ 11.9 µM); in the assay with B. subtilis ATCC 6633, 0.78 µg/mL (≈ 1.49 µM); in the assay on S. marcescens 35, 3.13 µg/mL (≈ 5.97 µM).

For `CCO/N=C(\C(=O)NC1C(=O)N2C(C(=O)[O-])=C(C[n+]3cc(C)cc(C)c3)CSC12)c1nsc(N)n1` (stereo not drawn) [(4)], the figures for the MIC with Ps. aeruginosa 2, against B. subtilis ATCC 6633 and with S. marcescens 35 were 6.25 µg/mL (≈ 12.1 µM), 1.56 µg/mL (≈ 3.01 µM) and 3.13 µg/mL (≈ 6.05 µM), respectively.

The record behind these values is patent US4457928A, “Cephem compounds” (Fujisawa Pharmaceutical Co., Ltd., priority 1980, dated 1984).
